Laboratory results taken from patent publication US20260062426A1, “CYCLIN DEPENDENT KINASE DEGRADERS AND METHODS OF USE THEREOF” (Differentiated Therapeutics Inc, priority 2023, published 2026).

Key:
Assay type in all cases: cell-based
[1] = target: T1, CDK2 (Homo sapiens, UniProt P24941); test: CDK2 HIBIT PQ (protein quantification), degradation; settings: for CDK2 HIBIT PQ Max (%): Max = Maximum; for DC50: PQ = Protein Quantification
T1 construct: host or cells: HEK293
Procedure, shortened: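 HEK293 cells carrying HiBiT-tagged CDK2 were grown in DMEM with 10% FBS and seeded in 384-well plates at 1.6×10^5 cells/well in 50 uL, then incubated overnight at 37° C and 5% CO2. After 6 hours of compound treatment, 20 μL of HiBiT reagent (Nano-Glo HiBiT lytic buffer, lytic substrate, LgBiT protein) was added and plates were shaken for 20 minutes at room temperature before an EnVision reading. High control was 0.1% DMSO and low control was medium only. Maximal degradation and DC50 were derived from these readings.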

[2] = target: T2, CDK9 (Homo sapiens, UniProt P50750); test: CDK9 HIBIT PQ (protein quantification), degradation; settings: for Dmax: Max = Maximum; for DC50: PQ = Protein Quantification
T2 construct: host or cells: HEK293
Procedure, shortened: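 In 384-well plates, HEK293 cells with HiBiT-tagged CDK9, grown in DMEM with 10% FBS, were seeded at 1.6×10^5 cells/well in 50 uL and kept overnight at 37° C and 5% CO2. After compound treatment, a HiBiT assay quantified CDK9 protein against a high control of 0.1% DMSO-treated cells and a low control of culture medium only. Maximal degradation, Dmax and DC50 were derived from the resulting signal.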

[3] = target: T3, CCNE1 (Homo sapiens, UniProt P24864+P24941); test: CCNE1 HIBIT PQ (protein quantification), degradation; settings: for CCNE1 HIBIT PQ Max (%): Max = Maximum; for DC50: PQ = Protein Quantification
T3 construct: host or cells: HEK293
Procedure, shortened: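 For DC50 and maximal degradation, CCNE1 protein was quantified with a HiBiT assay in HEK293 cells carrying HiBiT-tagged CCNE1. Cells in EMEM with 10% FBS went into 384-well plates at 1.6×10⁵ cells/well in 50 uL, stayed overnight at 37° C and 5% CO₂, and then received compound for 6 hours. Readings were referenced to 0.1% DMSO-treated cells as the high control and culture medium only as the low control.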

T2 sequence (P50750 whole entry): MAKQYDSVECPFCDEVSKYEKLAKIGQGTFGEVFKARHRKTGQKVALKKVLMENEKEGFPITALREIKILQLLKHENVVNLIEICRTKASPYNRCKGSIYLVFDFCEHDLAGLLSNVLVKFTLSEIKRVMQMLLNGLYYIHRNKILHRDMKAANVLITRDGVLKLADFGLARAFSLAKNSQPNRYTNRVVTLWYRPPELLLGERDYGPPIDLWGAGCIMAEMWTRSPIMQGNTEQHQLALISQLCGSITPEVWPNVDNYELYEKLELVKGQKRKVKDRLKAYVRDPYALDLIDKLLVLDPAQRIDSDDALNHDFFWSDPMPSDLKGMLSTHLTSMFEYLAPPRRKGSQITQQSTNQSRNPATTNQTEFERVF

CDK2 HIBIT PQ Max (%) [1] [%] | DC50 [1] [nM] | Dmax [2] [%] | CCNE1 HIBIT PQ Max (%) [3] [%] | DC50 [2] [nM] | DC50 [3] [nM] | Structure (SMILES)
85 | 2 | 12 | 36 |  |  | CC(C)Oc1c(-c2cn[nH]c2)ncn2nc(Nc3ccc(S(=O)(=O)c4cccc(CN5CC(c6ccc7c(N8CCC(=O)NC8=O)nn(C)c7c6)C5)c4)cc3F)nc12 [Compound 78]
90 | 0.87 | 77 | 85 | 3.8 | 0.77 | CC(C)Oc1c(-c2cn[nH]c2)ncn2nc(NC3CCN(S(=O)(=O)N(C)CCCN4CCC(c5cccc6c5n(C)c(=O)n6C5CCC(=O)NC5=O)CC4)CC3)nc12 (racemic) [Compound 19]
66 | 6.3 | 6 | 10 |  |  | CC(C)Oc1c(-c2cn[nH]c2)ncn2nc(Nc3ccc(S(=O)(=O)N4CC5(CCCN(CCOc6cccc7c6n(C)c(=O)n7C6CCC(=O)NC6=O)C5)C4)cc3F)nc12 (stereo not shown) [Compound 27]
92 | 0.1 | 69 | 70 | 1.87 | 0.93 | CC(C)Oc1c(-c2cn[nH]c2)ncn2nc(Nc3ccc(S(=O)(=O)N(C)CCCN4CCN(c5ccc6c(c5)n(C)c(=O)n6C5CCC(=O)NC5=O)CC4)cc3F)nc12 (stereo not shown) [Compound 66]
94 | 14.5 | 75 | 76 | 307 | 96.5 | CC(C)Oc1c(-c2cn[nH]c2)ncn2nc(Nc3ccc(S(=O)(=O)c4cccc(CN5CCN(c6ccc7c(N8CCC(=O)NC8=O)nn(C)c7c6)C(C(C)C)C5)c4)cc3F)nc12 (racemic) [Compound 43, rac-1-{6-[(2R)-4-{[3-(3-fluoro-4-{[8-isopropoxy-7-(1H-pyrazol-4-yl)-[1,2, 4]triazolo[1,5-c]pyrimidin-2-yl]amino}benzenesulfonyl)phenyl]methyl}-2-isopropylpiperazin-1-yl]-1-methylindazol-3-yl}-1,3-diazinane-2,4-dione]
98 | 3.9 | 49 | 85 |  | 20.3 | CC(C)Oc1c(-c2cn[nH]c2)ncn2nc(Nc3ccc(S(=O)(=O)c4cccc(C[C@H]5C[C@H](c6ccc7c(c6)CN([C@@H]6CCC(=O)NC6=O)C7=O)C5)c4)cc3F)nc12 (stereo in doubt) [Compound 80, (R)-3-(5-((1s,3R)-3-(3-((3-fluoro-4-((8-isopropoxy-7-(1H-pyrazol-4-yl)-[1,2,4]triazolo[1,5-c]pyrimidin-2-yl)amino)phenyl)sulfonyl)benzyl)cyclobutyl)-1-oxoisoindolin-2-yl)piperidine-2,6-dione]
95 | 0.35 | 99 | 93 | 1.37 | 0.72 | CC(C)Oc1c(-c2cn[nH]c2)ncn2nc(Nc3ccc(S(=O)(=O)N(C)CCCN4CCC(c5ccc6c(N7CCC(=O)NC7=O)nn(C)c6c5)CC4)cc3F)nc12 [Compound 15]
87 | 1 | 80 | 75 | 8.05 | 3.16 | CC(C)Oc1c(-c2cn[nH]c2)ncn2nc(Nc3ccc(S(=O)(=O)N4CCC[C@H](CN5CC[C@@H](c6ccc7c(N8CCC(=O)NC8=O)nn(C)c7c6)CC5(C)C)C4)cc3F)nc12 (single isomer, unassigned) [Compound 96]
89 | 2.9 | 87 | 63 | 57.6 | 22.1 | CC(C)Oc1c(-c2cn[nH]c2)ncn2nc(Nc3ccc(S(=O)(=O)N4CCC5(CCN(C6CCN(c7ccc8c(c7)n(C)c(=O)n8C7CCC(=O)NC7=O)CC6)C5)C4)cc3F)nc12 (stereo not shown) [Compound 36]

The remaining lines, values behind:

Structure (SMILES) | CDK2 HIBIT PQ Max (%) [1] [%] | DC50 [1] [nM] | Dmax [2] [%] | CCNE1 HIBIT PQ Max (%) [3] [%] | DC50 [2] [nM] | DC50 [3] [nM]
CC(C)Oc1c(-c2cn[nH]c2)ncn2nc(Nc3ccc(S(=O)(=O)c4cccc(CN5CCN(c6ccc7c(N8CCC(=O)NC8=O)nn(C)c7c6)C6CC65)c4)cc3F)nc12 (stereo not shown) [Compound 44] | 92 | 3.5 | 15 | 39 |  | 
CC(C)Oc1c(-c2cn[nH]c2)ncn2nc(Nc3ccc(S(=O)(=O)c4cccc(CN5CCN(c6ccc7c(N8CCC(=O)NC8=O)nn(C)c7c6)CC5(C)C)c4)cc3F)nc12 [Compound 47] | 97 | 6.2 | 74 | 72 | 136 | 55
CC(C)Oc1c(-c2cn[nH]c2)ncn2nc(Nc3ccc(S(=O)(=O)N(C)CCCN4CCN(c5ccc6c(c5)n(C)c(=O)n6C5CCC(=O)NC5=O)C[C@H]4C)cc3F)nc12 (stereo partly shown) [Compound 63] | 92 | < 0.152 | 85 | 66 | 2.07 | 1.24
CC(C)Oc1c(-c2cn[nH]c2)ncn2nc(Nc3ccc(S(=O)(=O)N4CCCC(CN5CCC(c6ccc7c(N8CCC(=O)NC8=O)nn(C)c7c6)CC5)C4)cc3F)nc12 (racemic) [Compound 87, rac-(R)-1-(6-(1-((1-((3-fluoro-4-((8-isopropoxy-7-(1H-pyrazol-4-yl)-[1,2, 4]triazolo[1,5-c]pyrimidin-2-yl)amino)phenyl)sulfonyl)piperidin-3-yl)methyl)piperidin-4-yl)-1-methyl-1H-indazol-3-yl)dihydropyrimidine-2,4(1H,3H)-dione] | 90 | 0.4 | 72 | 79 | 3.32 | 1.4
CC(C)Oc1c(-c2cn[nH]c2)ncn2nc(Nc3ccc(S(=O)(=O)N(C)CCCN4C5CC4CN(c4ccc6c(c4)n(C)c(=O)n6C4CCC(=O)NC4=O)C5)cc3F)nc12 (stereo not shown) [Compound 70] | 61 | 0.3 | 9 | 20 |  | 
CCC1CN(c2ccc3c(N4CCC(=O)NC4=O)nn(C)c3c2)CCN1Cc1cccc(S(=O)(=O)N2CC[C@H](Nc3nc4c(OC(C)C)c(-c5cn[nH]c5)ncn4n3)[C@H](C)C2)c1 (stereo partly shown) [Compound 50] | 97 | 2.8 | 96 | 90 | 23.5 | 15.2
CC(C)Oc1c(-c2cn[nH]c2)ncn2nc(Nc3ccc(S(=O)(=O)c4ccc(CN5CCC(c6ccc7c(c6)n(C)c(=O)n7[C@H]6CCC(=O)NC6=O)CC5)o4)cc3F)nc12 [Compound 73] | 79 | 0.8 | 31 | 27 |  | 
CC(C)Oc1c(-c2cn[nH]c2)ncn2nc(Nc3ccc(S(=O)(=O)c4cccc(CN5C6CCC5CN(c5ccc7c(N8CCC(=O)NC8=O)nn(C)c7c5)C6)c4)cc3F)nc12 [Compound 46] | 95 | 3.6 | 71 | 48 | 92.1 | 
CC(C)Oc1c(-c2cn[nH]c2)ncn2nc(Nc3ccc(S(=O)(=O)c4cccc(CN5CC6CC5CN6c5ccc6c(N7CCC(=O)NC7=O)nn(C)c6c5)c4)cc3F)nc12 (stereo not shown) [Compound 48] | 79 | 3.1 | 2 | 21 |  | 
CC(C)Oc1c(-c2cn[nH]c2)ncn2nc(NC3CCN(S(=O)(=O)c4cccc(CN5CC(c6ccc7c(c6)CN(C6CCC(=O)NC6=O)C7=O)C5)c4)CC3)nc12 (racemic) [Compound 4] | 63 | 4.14 | 4 | 65 |  | 7.1
CC(C)Oc1c(-c2cn[nH]c2)ncn2nc(Nc3ccc(S(=O)(=O)c4cccc(C[C@H]5C[C@@H](c6ccc7c(c6)CN(C6CCC(=O)NC6=O)C7=O)C5)c4)cc3F)nc12 (stereo partly shown) [Compound 29, 3-{1-oxo-5-[(1s,3s)-3-{[3-(3-fluoro-4-{[8-isopropoxy-7-(1H-pyrazol-4-yl)-[1,2,4]triazolo[1,5-c]pyrimidin-2-yl]amino}benzenesulfonyl)phenyl]methyl}cyclobutyl]-3H-isoindol-2-yl}piperidine-2,6-dione] | 94 | 8 | 12 | 78 |  | 18.7
CC(C)Oc1c(-c2cn[nH]c2)ncn2nc(NC3CCN(S(=O)(=O)c4cccc(CN5CC6(C5)CN(c5ccc7c(c5)CN(C5CCC(=O)NC5=O)C7=O)C6)c4)CC3)nc12 (racemic) [Compound 2] | 46 |  | 92 | 41 | 25.7 | 
CC(C)Oc1c(-c2cn[nH]c2)ncn2nc(Nc3ccc(S(=O)(=O)N4CCC[C@H](CN5CC[C@H](c6ccc7c(N8CCC(=O)NC8=O)nn(C)c7c6)CC5(C)C)C4)cc3F)nc12 (single isomer, unassigned) [Compound 104] | 75 | 1 | 13 | 48 |  | 
CC(C)Oc1c(-c2cn[nH]c2)ncn2nc(Nc3ccc(S(=O)(=O)N(C)CCCN4CCN(c5ccc6c(c5)n(C)c(=O)n6C5CCC(=O)NC5=O)CC4(C)C)cc3F)nc12 (racemic) [Compound 67] | 92 | < 0.152 | 91 | 73 | 1.52 | 1.08
